Experimental data as given in US20220062296A1, “COMBINATIONS OF GABAA ALPHA 5 AGONISTS AND SV2A INHIBITORS AND METHODS OF USING IN THE TREATMENT OF COGNITIVE IMPAIRMENT” (AGENEBIO, INC., priority 2020, published 2022).

Columns and labels:
aged-impaired (AI) rats = test: Radial Arm Maze (RAM) task with one-hour delay, levetiracetam; assay type: in vivo, rat; details: for effective in reducing the number of errors in the radial arm maze: levetiracetam on its own
Method: The effects of levetiracetam on the spatial memory retention of aged-impaired (AI) rats were assessed in a Radial Arm Maze (RAM) behavioral task using vehicle control and five different dosage levels of levetiracetam (1.25 mg/kg/day, 2.5 mg/kg/day, 5 mg/kg/day, 10 mg/kg/day and 20 mg/kg/day). RAM behavioral tasks were performed on ten AI rats. All six treatment conditions were tested on all ten rats, as described above for the MWM test. The RAM apparatus used consisted of eight equidistantly spaced arms. An elevated maze arm (7 cm width×75 cm length) projected from each facet of an octagonal center platform (30 cm diameter, 51.5 cm height). […] A food well (4 cm diameter, 2 cm deep) was located at the distal end of each arm. Froot Loops™ (Kellogg Company) were used as rewards. […] Numerous extra maze cues surrounding the apparatus were also provided. The AI rats were initially subjected to a pre-training test (Chappell et al. Neuropharmacology 37: 481-487, 1998). […] In the habituation phase, rats were familiarized to the maze for an 8-minute session on four consecutive days. In each of these sessions food rewards were scattered on the RAM, initially on the center platform and arms and then progressively confined to the arms. After this habituation phase, a standard training protocol was used, in which a food pellet was located at the end of each arm. Rats received one trial each day for 18 days. Each daily trial terminated when all eight food pellets had been obtained or when either 16 choices were made or 15 minutes had elapsed. After completion of this training phase, a second training phase was carried out in which the memory demand was increased by imposing a brief delay during the trial. At the beginning of each trial, three arms of the eight-arm maze were blocked. Rats were allowed to obtain food on the five arms to which access was permitted during this initial ‘information phase’ of the trial. Rats were then removed from the maze for 60 seconds, during which time the barriers on the maze were removed, thus allowing access to all eight arms. Rats were then placed back onto the center platform and allowed to obtain the remaining food rewards during this ‘retention test’ phase of the trial. The identity and configuration of the blocked arms varied across trials. The number of “errors” the AI rats made during the retention test phase was tracked. An error occurred in the trial if the rats entered an arm from which food had already been retrieved in the pre-delay component of the trial, or if it re-visited an arm in the post-delay session that had already been visited. After completion of the pre-training test, rats were subjected to trials with more extended delay intervals, i.e., a one-hour delay, between the information phase (presentation with some blocked arms) and the retention test (presentation of all arms). During the delay interval, rats remained off to the side of the maze in the testing room, on carts in their individual home cages. […] Injections were given every other day with intervening washout days. Each AI rat was treated with all six conditions within 23 days of testing. To counterbalance any potential bias, drug effect was assessed using ascending-descending dose series, i.e., the dose series was given first in an ascending order and then repeated in a descending order. Therefore, each dose had two determinations. Parametric statistics (paired t-tests) was used to compare the retention test performance of the AI rats in the one-hour delay version of the RAM task in the context of different doses of levetiracetam and vehicle control (see FIG. 3).

aMCI subjects = test: Explicit 3-alternative forced choice task (lure identification); assay type: in vivo, human
Description: There are various tests known in the art for assessing cognitive function in humans, for example and without limitation, the clinical global impression of change scale (CIBIC-plus scale); the Mini Mental State Exam (MMSE); the Neuropsychiatric Inventory (NPI); the Clinical Dementia Rating Scale (CDR); the Cambridge Neuropsychological Test Automated Battery (CANTAB); the Sandoz Clinical Assessment-Geriatric (SCAG), the Buschke Selective Reminding Test (Buschke and Fuld, 1974); the Verbal Paired Associates subtest; the Logical Memory subtest; the Visual Reproduction sub test of the Wechsler Memory Scale-Revised (WMS-R) (Wechsler, 1997); the Benton Visual Retention Test, or MATRICS consensus neuropsychological test battery which includes tests of working memory, speed of processing, attention, verbal learning, visual learning, reasoning and problem solving and social cognition. See Folstein et al., J Psychiatric Res 12: 189-98, (1975); Robbins et al., Dementia 5: 266-81, (1994); Rey, L'examen clinique en psychologie, (1964); Kluger et al., J Geriatr Psychiatry Neurol 12:168-79, (1999); Marquis et al., 2002 and Masur et al., 1994. Also see Buchanan, R. W., Keefe, R. S. E., Umbricht, D., Green, M. F., Laughren, T., and Marder, S. R. (2011), The FDA-NIMH-MATRICS guidelines for clinical trial design of cognitive-enhancing drugs: what do we know 5 years later? Schizophr. Bull. 37, 1209-1217. Another example of a cognitive test in humans is the explicit 3-alternative forced choice task. […]
(§1) The activity of the subject's medial temporal lobe is measured by functional MRI during the subject's participation in an explicit 3-alternative forced choice task, where participants view novel, repeated and similar (“lure”) stimuli. […]
as §1

SMILES: CC[C@@H](C(N)=O)N1CCCC1=O [levetiracetam, (2S)-2-(2-oxopyrrolidin-1-yl)butanamide]
- effective doses of levetiracetam in the animal model (aged-impaired (AI) rats; AI rats): 5 to 10 mg/kg
- average no. of errors ± standard error of the mean (SEM) (aged-impaired (AI) rats; levetiracetam 5 mg/kg/day i.p., one-hour delay, p=0.057 vs vehicle): 0.75±0.32
- average no. of errors ± SEM (aged-impaired (AI) rats; levetiracetam 10 mg/kg/day i.p., one-hour delay, p=0.042 vs vehicle): 0.80±0.27
- performance of AI rats in the radial maze task (aged-impaired (AI) rats; levetiracetam 20 mg/kg): fails to improve the performance
- effective in reducing the number of errors in the radial arm maze (aged-impaired (AI) rats; 1.25 mg/kg): not at 1.25 mg/kg or 2.5 mg/kg
- effective in reducing the number of errors in the radial arm maze (aged-impaired (AI) rats; 2.5 mg/kg): not at 1.25 mg/kg or 2.5 mg/kg
- performance in the explicit 3-alternative forced choice task (aMCI subjects; levetiracetam 62.5 mg BID, p=0.041): improves significantly
- performance in the explicit 3-alternative forced choice task (aMCI subjects; levetiracetam 125 mg twice a day for two weeks, p=0.039): improves significantly
- performance in the explicit 3-alternative forced choice task (aMCI subjects; levetiracetam 250 mg BID, p=0.2396): does not significantly improve
